{"source": "patent US20160311812A1", "about": "“ADENOSINE A1 AGONISTS AS MEDICAMENTS FOR KIDNEY DISORDERS” (BAYER PHARMA AKTIENGESELLSCHAFT, priority 2013, published 2016)", "key": {"[1]": {"tested_on": "5/6 nephrectomy rat model", "experiment": "Functional and structural renal dysfunction in 5/6 nephrectomized rats", "format": "in vivo", "conditions": "4 weeks; for End organ injury marker concentration in the urine: hFABP / End organ injury marker concentration in the urine: hFABP per creatinine: ELISA; for Kidney injury marker-1 [gene expression] / Lipocalin-2 [gene expression] / Osteopontin [gene expression]: renal cortex", "source_text": "(§1) B-3. Effects of Partial A1 Agonists on Renal and Cardiac Function in 5/6 Nephrectomized Rats (Example 1 for Chronic Kidney Disorder)\n(§2) 5/6 nephrectomy in the rat, in which one kidney and the renal cortex of the second kidney are surgically removed (=5/6 of functional kidney tissue) is an established animal model for interstitial renal fibrosis and chronic renal insufficiency [C. Fleck et al., “Suitability of 5/6 nephrectomy (5/6NX) for the induction of interstitial renal fibrosis in rats Influence of sex, strain, and surgical procedure”, Exp. Tox. Pathology 2006, 57, 195-205]. The model is characterized by progressive proteinuria, disturbed tubular electrolyte transport, a reduced glomerular filtration rate, an increase in urinary output, interstitial fibrosis with reactively occurring lymphocyte infiltrates, glomerulosclerosis and tubular atrophy. The level of proteinuria is a specific index of the renal function prognosis: the higher the proteinuria, the greater is the functional and structural kidney injury and therefore progression of chronic to terminal renal insufficiency (uraemia). During monitoring of therapy, e.g. with the ACE inhibitor enalapril, the course of proteinuria provides information on the functional and structural response to the therapy and thus on the renal function prognosis. As a result of the renal insufficiency and accumulation of umemic toxins, in the animals there is secondary development of a umemic cardiomyopathy, depending on the severity associated with hypertension, increased heart rate, reduced parasympathetic tone, myocardial, left-ventricular hypertrophy and fibrosis, diastolic dysfunction and an increased prevalence of arrhythmias [Svilerova et al. 2010 Physiol Res 59: S81-S88).\n(§3) Procedure: male Wistar:WU rats (210-250 g) from Charles River had the left kidney and the renal cortex of the right kidney removed (=SNX) in one session; sham-operated rats served as control group (=SOP). The following groups, each with 12 rats per group, were investigated:\n(§4) Group 2 SNX+placebo (60 g glycerol+100 g water+969 g PEG-400)\n(§5) Group 3 SNX+10 mg/kg body weight/day enalapril (reference therapy, in the drinking water)\n(§6) Group 4 SNX+0.1 mg/kg body weight/day partial A1 agonist EXAMPLE 1, p.o. in placebo\n(§7) Group 5 SNX+1.0 mg/kg body weight/day partial A1 agonist EXAMPLE 1, p.o. in placebo\n(§8) Group 6 SNX+0.3 mg/kg body weight/day partial A1 agonist EXAMPLE 4, p.o. in placebo\n(§9) Group 7 SNX+3.0 mg/kg body weight/day partial A1 agonist EXAMPLE 4, p.o. in placebo\n(§10) Three weeks after 5/6 nephrectomy, the rats developed manifest proteinuria, from this time point the rats were treated for a further four weeks corresponding to the groups stated above. At the end of the protocol, the following samples were obtained/measurements were carried out: eight-hour urine collection with determination of the concentration of hFABP in the urine by ELISA (Rat/Mouse h-FABP ELISA, Hycultbiotech), as marker for end organ damage, invasive measurement of the isoprenaline-induced increase (cumulatively 12.5 ng-250 ng/kg isoprenaline, i.v.) in systolic and diastolic left ventricular function, and TaqMan analyses of renal injury markers in the renal cortex."}, "[2]": {"tested_on": "5/6 nephrectomy rat model", "experiment": "Left-ventricular diastolic dysfunction under isoprenaline infusion in 5/6 nephrectomized rats", "format": "in vivo", "conditions": "4 weeks", "source_text": "as §1, §2, §3, §4, §5, §6, §7, §8, §9, §10"}, "[3]": {"conditions": "Group 4: SNX + 0.1 mg/kg body weight/day p.o."}, "[4]": {"conditions": "Group 5: SNX + 1.0 mg/kg body weight/day p.o."}}, "data": [{"smiles": "N#Cc1c(N)nc(SCc2csc(-c3ccc(Cl)cc3)n2)c(C#N)c1-c1ccc(OCCO)cc1", "note": "[EXAMPLE 1, 2-Amino-6-({[2-(4-chlorophenyl)-1,3-thiazol-4-yl]methyl}sulphanyl)-4-[4-(2-hydroxyethoxy)phenyl]pyridine-3,5-dicarbonitrile]", "values": [{"measurement": "P-creatinine", "setting": "[1]; [3]", "result": "66 ± 1", "unit": "µmol/L"}, {"measurement": "P-urea", "setting": "[1]; [3]", "result": "11 ± 0.5", "unit": "mmol/L"}, {"measurement": "U-creatinine", "setting": "[1]; [3]", "result": "2.4 ± 0.3", "unit": "μmol/ml urine/kg BW/h"}, {"measurement": "U-protein", "setting": "[1]; [3]", "result": "1.07 ± 0.28", "unit": "μmol/ml urine/kg BW/h"}, {"measurement": "U-sodium", "setting": "[1]; [3]", "result": "18 ± 3", "unit": "μmol/ml urine/kg BW/h"}, {"measurement": "U-urea", "setting": "[1]; [3]", "result": "260 ± 31", "unit": "μmol/ml urine/kg BW/h"}, {"measurement": "Urine volume", "setting": "[1]; [3]", "result": "2.2 ± 0.1", "unit": "ml/kg BW/h"}, {"measurement": "End organ injury marker concentration in the urine: hFABP", "setting": "[1]; [3]", "result": "1088 ± 159", "unit": "pg hFABP/ml urine/h"}, {"measurement": "End organ injury marker concentration in the urine: hFABP per creatinine", "setting": "[1]; [3]", "result": "194 ± 36", "unit": "pg hFABP/μmol creatinine"}, {"measurement": "Kidney injury marker-1 [gene expression]", "setting": "[1]; [3]", "result": "60 ± 17", "unit": "rel. expression"}, {"measurement": "Lipocalin-2 [gene expression]", "setting": "[1]; [3]", "result": "307 ± 51", "unit": "rel. expression"}, {"measurement": "Osteopontin [gene expression]", "setting": "[1]; [3]", "result": "6008 ± 1209", "unit": "rel. expression"}, {"measurement": "P-creatinine", "setting": "[1]; [4]", "result": "63 ± 1", "unit": "µmol/L"}, {"measurement": "P-urea", "setting": "[1]; [4]", "result": "11 ± 0.3", "unit": "mmol/L"}, {"measurement": "U-creatinine", "setting": "[1]; [4]", "result": "2.3 ± 0.3", "unit": "μmol/ml urine/kg BW/h"}, {"measurement": "U-protein", "setting": "[1]; [4]", "result": "0.75 ± 0.14", "unit": "μmol/ml urine/kg BW/h"}, {"measurement": "U-sodium", "setting": "[1]; [4]", "result": "31 ± 3", "unit": "μmol/ml urine/kg BW/h"}, {"measurement": "U-urea", "setting": "[1]; [4]", "result": "264 ± 35", "unit": "μmol/ml urine/kg BW/h"}, {"measurement": "Urine volume", "setting": "[1]; [4]", "result": "2.0 ± 0.2", "unit": "ml/kg BW/h"}, {"measurement": "End organ injury marker concentration in the urine: hFABP", "setting": "[1]; [4]", "result": "1136 ± 229", "unit": "pg hFABP/ml urine/h"}, {"measurement": "End organ injury marker concentration in the urine: hFABP per creatinine", "setting": "[1]; [4]", "result": "175 ± 39", "unit": "pg hFABP/μmol creatinine"}, {"measurement": "Kidney injury marker-1 [gene expression]", "setting": "[1]; [4]", "result": "62 ± 13", "unit": "rel. expression"}, {"measurement": "Lipocalin-2 [gene expression]", "setting": "[1]; [4]", "result": "313 ± 65", "unit": "rel. expression"}, {"measurement": "Osteopontin [gene expression]", "setting": "[1]; [4]", "result": "5476 ± 1131", "unit": "rel. expression"}, {"measurement": "left-ventricular pressure decrease as a function of time", "setting": "[2]; isoprenaline 0 ng/kg body weight, Group 4: SNX + 0.1 mg/kg body weight/day p.o.", "result": "6769 ± 206", "unit": "mmHg/s"}, {"measurement": "left-ventricular pressure decrease as a function of time", "setting": "[2]; isoprenaline 0 ng/kg body weight, Group 5: SNX + 1.0 mg/kg body weight/day p.o.", "result": "6516 ± 334", "unit": "mmHg/s"}, {"measurement": "left-ventricular pressure decrease as a function of time", "setting": "[2]; isoprenaline 12.5 ng/kg body weight, Group 4: SNX + 0.1 mg/kg body weight/day p.o.", "result": "7990 ± 208", "unit": "mmHg/s"}, {"measurement": "left-ventricular pressure decrease as a function of time", "setting": "[2]; isoprenaline 12.5 ng/kg body weight, Group 5: SNX + 1.0 mg/kg body weight/day p.o.", "result": "7126 ± 283", "unit": "mmHg/s"}, {"measurement": "left-ventricular pressure decrease as a function of time", "setting": "[2]; isoprenaline 25 ng/kg body weight, Group 4: SNX + 0.1 mg/kg body weight/day p.o.", "result": "8283 ± 222", "unit": "mmHg/s"}, {"measurement": "left-ventricular pressure decrease as a function of time", "setting": "[2]; isoprenaline 25 ng/kg body weight, Group 5: SNX + 1.0 mg/kg body weight/day p.o.", "result": "7309 ± 285", "unit": "mmHg/s"}, {"measurement": "left-ventricular pressure decrease as a function of time", "setting": "[2]; isoprenaline 50 ng/kg body weight, Group 4: SNX + 0.1 mg/kg body weight/day p.o.", "result": "8913 ± 282", "unit": "mmHg/s"}, {"measurement": "left-ventricular pressure decrease as a function of time", "setting": "[2]; isoprenaline 50 ng/kg body weight, Group 5: SNX + 1.0 mg/kg body weight/day p.o.", "result": "7990 ± 213", "unit": "mmHg/s"}, {"measurement": "left-ventricular pressure decrease as a function of time", "setting": "[2]; isoprenaline 100 ng/kg body weight, Group 4: SNX + 0.1 mg/kg body weight/day p.o.", "result": "9701 ± 300", "unit": "mmHg/s"}, {"measurement": "left-ventricular pressure decrease as a function of time", "setting": "[2]; isoprenaline 100 ng/kg body weight, Group 5: SNX + 1.0 mg/kg body weight/day p.o.", "result": "8722 ± 183", "unit": "mmHg/s"}, {"measurement": "left-ventricular pressure decrease as a function of time", "setting": "[2]; isoprenaline 250 ng/kg body weight, Group 4: SNX + 0.1 mg/kg body weight/day p.o.", "result": "9721 ± 307", "unit": "mmHg/s"}, {"measurement": "left-ventricular pressure decrease as a function of time", "setting": "[2]; isoprenaline 250 ng/kg body weight, Group 5: SNX + 1.0 mg/kg body weight/day p.o.", "result": "9028 ± 226", "unit": "mmHg/s"}]}]}
